From US6756374B2, “Diaminothiazoles having antiproliferative activity” (Hoffmann-La Roche Inc., priority 2001, dated 2004)

Key:
human cyclin D1-CDK4 = human cyclin D1-CDK4 (Homo sapiens, UniProt P11802); assay: FlashPlate kinase assay, cyclin D1-CDK4; format: biochemical; settings: Rb protein substrate, 1 μM ATP
Protocol: (§1) To determine inhibition of Cdk4, Cdk2 and Cdk1 activity, kinase assays were conducted using FlashPlate™ assays (NEN™-Life Science Products). FlashPlate assays were performed using recombinant human cyclin B-CDK1, human cyclin E-CDK2 or human cyclin D1-CDK4 complexes. GST-cyclinE (GST-cycE), CDK2, GST-cyclinB (GST-cycB), CDK1, GST-CDK4 and cyclin D1 (cycD1) cDNA clones in baculovirus vectors were provided by Dr. W. Harper at the Baylor College of Medicine, Houston, Tex.
(§2) The expression of the 62Kd protein was under the control of an IPTG inducible promoter in an M15 E. coli strain. Cells were lysed by sonication and purification was carried out by binding lysates at pH 8.0 to a Ni-chelated agarose column pretreated with 1 mM imidazole. The resin was then washed several times with incrementally decreasing pH buffers to pH 6.0, and eluted with 500 mM imidazole. Eluted protein was dialysed against 20 mM HEPES pH 7.5, 30% glycerol, 200 mM NaCl, and 1 mM DTT. Purified Rb fusion protein stocks were quantitated for protein concentration, aliquoted, and stored at −70° C.
(§3) For all three kinase assays reported herein, 96-well FlashPlates were coated with Rb protein at 10 μg/ml, using 100 μl per well. Plates were incubated at 4° C. overnight or at room temperature for 3 hours on a shaker. To control for nonspecific phosphorylation, one row of wells was coated with 100 μl/well coating buffer (20 mM HEPES, 0.2 M NaCl). Plates were then washed twice with wash buffer (0.01% Tween 20 in phosphate-buffered saline). Compounds to be tested (“test compounds”) were added to the wells at 5×final concentration. Reactions were initiated by immediate addition of 40 μl reaction mix (25 mM HEPES, 20 mM MgCl2, 0.002% Tween 20, 2 mM DTT, 1 μM ATP, 4 nM ^33P-ATP) and a sufficient amount of enzyme to give counts that were at least 10-fold above background. Plates were incubated at room temperature on a shaker for 30 minutes. Plates were washed four times with the wash buffer, sealed, and counted on the TopCount scintillation counter (Packard Instrument Co., Downers Grove, Ill.]. The percent inhibition of Rb phosphorylation, which is a measure of the inhibition of CDK activity, was determined according to the following formula: [formula]
(§4) where “test compound” refers to the average counts per minute of the test duplicates, “nonspecific” refers to the average counts per minute when no CyclinD/Cdk4, etc., was added, and “total” refers to the average counts per minute when no compound was added.

human cyclin E-CDK2 = human cyclin E-CDK2 (Homo sapiens, UniProt P24941); assay: FlashPlate kinase assay, cyclin E-CDK2; format: biochemical; settings: Rb protein substrate, 1 μM ATP
Protocol: as §1, §2, §3, §4

human cyclin B-CDK1 = human cyclin B-CDK1 (Homo sapiens, UniProt P06493); assay: FlashPlate kinase assay, cyclin B-CDK1; format: biochemical; settings: Rb protein substrate, 1 μM ATP
Sequence of human cyclin B-CDK1 (P06493 whole entry): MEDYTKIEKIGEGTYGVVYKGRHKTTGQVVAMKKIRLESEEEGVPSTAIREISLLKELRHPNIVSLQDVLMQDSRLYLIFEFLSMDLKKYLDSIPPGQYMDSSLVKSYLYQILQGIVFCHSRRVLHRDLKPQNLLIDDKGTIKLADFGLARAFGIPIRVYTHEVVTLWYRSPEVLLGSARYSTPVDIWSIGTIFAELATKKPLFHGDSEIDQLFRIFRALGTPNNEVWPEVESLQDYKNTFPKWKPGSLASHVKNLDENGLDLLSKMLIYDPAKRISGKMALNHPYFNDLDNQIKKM
Sequence of human cyclin B-CDK1 (P14635 whole entry partner): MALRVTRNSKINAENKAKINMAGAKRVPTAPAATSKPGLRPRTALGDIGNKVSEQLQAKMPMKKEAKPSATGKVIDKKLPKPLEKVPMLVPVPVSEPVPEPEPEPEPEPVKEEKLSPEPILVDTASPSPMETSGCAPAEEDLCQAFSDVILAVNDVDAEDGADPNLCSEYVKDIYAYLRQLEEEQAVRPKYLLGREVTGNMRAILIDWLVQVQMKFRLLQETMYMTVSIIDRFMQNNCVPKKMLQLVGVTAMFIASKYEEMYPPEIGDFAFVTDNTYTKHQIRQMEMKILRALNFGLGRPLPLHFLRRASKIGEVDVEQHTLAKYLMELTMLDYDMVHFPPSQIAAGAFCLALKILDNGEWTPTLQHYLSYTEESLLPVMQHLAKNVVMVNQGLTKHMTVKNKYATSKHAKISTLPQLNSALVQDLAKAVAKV
Protocol: as §1, §2, §3, §4

HCT116 = assay: Tetrazolium dye (MTT) proliferation assay; format: cell-based; settings: Homo sapiens, HCT-116; HCT116 colorectal carcinoma cell line
Protocol: The cell line used was HCT116, a colorectal carcinoma cell line obtained from the American Type Cell Culture Collection (ATCC;
Rockville, Md.). The cells were grown in McCoy's 5A medium supplemented with 10% FCS and L-glutamine.
Cells were plated at the appropriate seeding density to give logarithmic growth over the course of the assay in a 96-well tissue culture plate. Plates were incubated overnight at 37° C. in a humidified incubator with 5% CO2. The next day, test compounds were serially diluted to four times the final concentration in the appropriate medium containing 1.2% DMSO. One-fourth final volume of each dilution was added in duplicate to the plates containing cells. The same volume of 1.2% DMSO in medium was added to a row of “control wells” such that the final concentration of DMSO in each well was 0.3%. Wells to which no cells were added served as the “blank.” Wells to which no inhibitor was added served as “no inhibitor control.” The plates were) returned to the incubator, and at set time points (determined by their growth curves) plates were analyzed as described below.
3-(4,5-dimethylthiazole-2-yl)-2,5-diphenyl-2H-tetrazolium bromide (thiazolyl blue; MTT; Sigma) was added to each well to yield a final concentration of 1 mg/ml. Plates were returned to the incubator for 2.5-3 hours at 37° C. The MTT-containing medium was removed and the resulting formazan metabolite was solubilized in 100% ethanol with shaking for 15 minutes at room temperature. Absorbance readings were taken in a microtiter plate reader (Dynatech and Molecular Devices plate readers were used interchangeably) at a wavelength of 570 nm with a 650 nm reference. Percent inhibition (% INH) is calculated by subtracting the absorbance of the blank well from all wells, then subtracting the ratio of the average absorbance of each test duplicate (SAVE) by the average of the controls (CAVE) from 1.00. The final number is then multiplied by 100 (% INH=(1.00−SAVE/CAVE)×100).

Sequence of human cyclin D1-CDK4 (P11802 whole entry): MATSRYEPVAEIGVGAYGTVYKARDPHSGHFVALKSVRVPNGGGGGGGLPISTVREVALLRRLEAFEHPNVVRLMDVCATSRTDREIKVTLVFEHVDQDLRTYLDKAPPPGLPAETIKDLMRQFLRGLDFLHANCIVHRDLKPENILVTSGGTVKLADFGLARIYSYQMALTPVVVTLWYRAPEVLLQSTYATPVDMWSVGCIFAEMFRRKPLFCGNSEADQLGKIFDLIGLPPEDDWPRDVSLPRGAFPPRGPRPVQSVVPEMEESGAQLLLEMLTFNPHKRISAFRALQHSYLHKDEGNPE
Sequence of human cyclin D1-CDK4 (P24385 whole entry partner): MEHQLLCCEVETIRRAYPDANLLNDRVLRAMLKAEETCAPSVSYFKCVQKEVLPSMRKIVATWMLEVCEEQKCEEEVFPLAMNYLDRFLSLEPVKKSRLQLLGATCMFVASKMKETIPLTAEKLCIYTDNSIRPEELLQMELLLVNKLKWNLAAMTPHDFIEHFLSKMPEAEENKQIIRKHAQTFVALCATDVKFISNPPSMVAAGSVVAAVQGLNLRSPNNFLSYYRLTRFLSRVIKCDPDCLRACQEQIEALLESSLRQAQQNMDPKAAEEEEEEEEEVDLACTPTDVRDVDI

Row | SMILES | IC50 (human cyclin D1-CDK4) | IC50 (human cyclin E-CDK2) | IC50 (human cyclin B-CDK1) | IC50 (HCT116)
1 | COc1cccc(C(=O)c2sc(Nc3ccc(N4CCN(C(C)C)CC4)cc3)nc2N)c1 [Example 43, [4-Amino-2-[[4-[4-(1-methylethyl)-1-piperazinyl]phenyl]amino]-5-thiazolyl](3-methoxyphenyl)methanone] | 21 nM | 3400 nM | 1900 nM | 1300 nM
2 | COc1cc(OC)cc(C(=O)c2sc(Nc3ccc(N4CCN(C(C)C)CC4)cc3)nc2N)c1 [Example 44, [4-Amino-2-[[4-[4-(1-methylethyl)-1-piperazinyl]phenyl]amino]-5-thiazolyl](3,5-dimethoxyphenyl)methanone] | 28 nM | 11900 nM | 1800 nM | 3800 nM
3 | CC(=O)Nc1ccc(C(=O)c2sc(Nc3ccc(N4CCN(C(C)C)CC4)cc3)nc2N)cc1 [Example 45] | 25 nM | 4900 nM | 5600 nM | 2900 nM
4 | CC(=O)N1CCN(c2ccc(Nc3nc(N)c(C(=O)c4ccc5c(c4)OCO5)s3)cc2)CC1 [Example 47, 1-Acetyl-4-[4-[[4-amino-5-[(1,3-benzodioxol-5-yl)carbonyl]-2-thiazolyl]amino]phenyl]piperazine] | 43 nM | 900 nM | 500 nM | 2800 nM
5 | Nc1nc(Nc2ccc(N3CCN(CCO)CC3)cc2)sc1C(=O)c1ccc(N2CCCC2)cc1 [Example 50, [4-Amino-2-[[4-[4-(2-hydroxyethyl)-1-piperazinyl]phenyl]amino]-5-thiazolyl][4-(1-pyrrolidinyl)phenyl]methanone] | 30 nM | 2500 nM | 5500 nM | 9300 nM
6 | Nc1nc(Nc2ccc(N3CCN(CCO)CC3)cc2)sc1C(=O)c1cccc(F)c1 [Example 51] | 20 nM | 500 nM | 900 nM | 900 nM
7 | Nc1nc(Nc2ccc(N3CCN(CCO)CC3)cc2)sc1C(=O)c1cc(F)cc(F)c1 [Example 52, [4-Amino-2-[[4-[4-(2-hydroxyethyl)-1-piperazinyl]phenyl]amino]-5-thiazolyl](3,5-difluorophenyl)methanone] | 28 nM | 700 nM | 1200 nM | 2300 nM
8 | Nc1nc(Nc2ccc(N3CCNCC3)cc2)sc1C(=O)c1ccc(N2CCCC2)cc1 [Example 55, [4-Amino-2-[[4-(1-piperazinyl)phenyl]amino]-5-thiazolyl][4-(1-pyrrolidinyl)phenyl]methanone] | 50 nM | 3200 nM | 4300 nM | 3800 nM
9 | CN1CCN(c2ccc(Nc3nc(N)c(C(=O)c4ccc(N5CCCC5)c([N+](=O)[O-])c4)s3)cc2)CC1 [Example 58, [4-Amino-2-[[4-(4-methyl-1-piperazinyl)phenyl]amino]-5-thiazolyl][3-nitro-4-(1-pyrrolidinyl)phenyl]methanone] | 19 nM | 2400 nM | 3900 nM | 3100 nM
10 | CN1CCN(c2ccc(Nc3nc(N)c(C(=O)c4ccc(N5CCOCC5)c([N+](=O)[O-])c4)s3)cc2)CC1 [Example 59, [4-Amino-2-[[4-(4-methyl-1-piperazinyl)phenyl]amino]-5-thiazolyl][3-nitro-4-(4-morpholinyl)phenyl]methanone] | 24 nM | 4400 nM | 4300 nM | 3900 nM
11 | COCCNc1ccc(C(=O)c2sc(Nc3ccc(N4CCN(C)CC4)cc3)nc2N)cc1[N+](=O)[O-] [Example 60, [4-Amino-2-[[4-(4-methyl-1-piperazinyl)phenyl]amino]-5-thiazolyl][3-nitro-4-[(2-methoxyethyl)amino]phenyl]methanone] | 17 nM | 7900 nM | 5900 nM | 4900 nM

Now those with a lower IC50 (human cyclin D1-CDK4), led by results:

Row | IC50 (human cyclin D1-CDK4) | IC50 (human cyclin E-CDK2) | IC50 (human cyclin B-CDK1) | IC50 (HCT116) | SMILES
12 | 15 nM | 3700 nM | 2900 nM | 3000 nM | CC(C)N1CCN(c2ccc(Nc3nc(N)c(C(=O)c4ccc5c(c4)OCCO5)s3)cc2)CC1 [Example 41, [4-Amino-2-[[4-[4-(1-methylethyl)-1-piperazinyl]phenyl]amino]-5-thiazolyl](2,3-dihydro-1,4-benzodioxin-6-yl)methanone]
13 | 10 nM | 2900 nM | 1900 nM | 1500 nM | CC(C)N1CCN(c2ccc(Nc3nc(N)c(C(=O)c4ccc5c(c4)OCO5)s3)cc2)CC1 [Example 42, [4-Amino-2-[[4-[4-(1-methylethyl)-1-piperazinyl]phenyl]amino]-5-thiazolyl](1,3-benzodioxol-5-yl)methanone]
14 | 14 nM | 5200 nM | 3600 nM | 3600 nM | CCN(CC)c1ccc(C(=O)c2sc(Nc3ccc(N4CCN(C(C)C)CC4)cc3)nc2N)cc1 [Example 46, [4-Amino-2-[[4-[4-(1-methylethyl)-1-piperazinyl]phenyl]amino]-5-thiazolyl][4-(diethylamino)phenyl]methanone]
15 | 10 nM | 7100 nM | 2300 nM | 13300 nM | CCN(CC)c1ccc(C(=O)c2sc(Nc3ccc(N4CCN(C(C)=O)CC4)cc3)nc2N)cc1 [Example 48, 1-Acetyl-4-[4-[[4-amino-5-[4-(diethylamino)benzoyl]-2-thiazolyl]amino]phenyl]piperazine]
16 | 15 nM | 1500 nM | 2100 nM | 5300 nM | Nc1nc(Nc2ccc(N3CCN(CCO)CC3)cc2)sc1C(=O)c1ccc2c(c1)OCCO2 [Example 49, [4-Amino-2-[[4-[4-(2-hydroxyethyl)-1-piperazinyl]phenyl]amino]-5-thiazolyl](2,3-dihydro-1,4-benzodioxin-6-yl)methanone]
17 | 6 nM | 1300 nM | 2300 nM | 2500 nM | COc1cccc(C(=O)c2sc(Nc3ccc(N4CCN(CCO)CC4)cc3)nc2N)c1 [Example 53, [4-Amino-2-[[4-[4-(2-hydroxyethyl)-1-piperazinyl]phenyl]amino]-5-thiazolyl](3-methoxyphenyl)methanone]
18 | 13 nM | 200 nM | 300 nM | 700 nM | Nc1nc(Nc2ccc(N3CCNCC3)cc2)sc1C(=O)c1cccc(F)c1 [Example 54, [4-Amino-2-[[4-(1-piperazinyl)phenyl]amino]-5-thiazolyl](3-fluorophenyl)methanone]
19 | 14 nM | 800 nM | 1000 nM | 800 nM | COc1ccc(C(=O)c2sc(Nc3ccc(N4CCNCC4)cc3)nc2N)cc1F [Example 56, [4-Amino-2-[[4-(1-piperazinyl)phenyl]amino)-5-thiazolyl](3-fluoro-4-methoxyphenyl)methanone]
20 | 9 nM | 1900 nM | 900 nM | 2100 nM | CN1CCN(c2ccc(Nc3nc(N)c(C(=O)c4ccc(NCCO)c([N+](=O)[O-])c4)s3)cc2)CC1 [Example 57, [4-Amino-2-[[4-(4-methyl-1-piperazinyl)phenyl]amino]-5-thiazolyl][4-(2-hydroxyethyl)amino-3-nitrophenyl]methanone]
